Measured values taken from patent US20230023092A1, “TREATMENT OF DEPRESSION AND OTHER VARIOUS DISORDERS WITH PSILOCYBIN” (COMPASS […], priority 2019, published 2023).

Test system: healthy subjects
Experiment: Phase 1 study: adverse events (TEAEs, MedDRA coded)
Format: in vivo, human
Settings: 25 mg oral
Protocol: A Phase 1 randomized, double-blind, placebo-controlled study to evaluate the effect of psilocybin on cognitive and emotional processing as compared to placebo in healthy volunteers was conducted. The study investigated the short-term (Day 7) and long-term (Day 28) effects of moderate (10 mg) and high doses (25 mg) of psilocybin on key domains of cognition, such as episodic memory, attention, working and spatial memory, social cognition and elements of executive function, including cognitive flexibility.
Each subject was assigned 1 treatment bottle containing 5 capsules packaged in a double-blind fashion, depending on the randomized treatment arm, the bottle contained one of the following: • a. Psilocybin 10 mg: 2×5-mg oral psilocybin capsules plus 3×placebo capsules • b. Psilocybin 25 mg: 5×5-mg oral psilocybin capsules • c. Placebo: 5×placebo capsules
Each 5-mg oral psilocybin capsules comprised 5 mg crystalline psilocybin in the form or Polymorph A, 12.5 mg of SMCC 50, 79.5 mg of SMCC 90, 1 mg sodium starch glycolate, 1 mg colloidal silicon dioxide, and 1 mg sodium stearyl fumarate
Adverse events: Throughout the course of the study, all AEs were monitored and recorded. Each AE was classified according to the following criteria: • i. […] Moderate: The AE produces some impairment of functioning, but is not hazardous to the subject's health. • iii. Severe: The AE produces significant impairment of functioning or incapacitation and is a definite hazard to the subject's health.
Visit 3 (V3): Drug Administration (Day 0): The subject was asked to eat a light breakfast at least two hours prior to coming to the clinic for study drug administration. On Day 0 (V3), the subject underwent the SSTS, had vital signs obtained, medications reviewed, AEs recorded and eligibility reviewed prior to being randomized to study drug. The study drug was administered to up to six subjects simultaneously in individual beds separated by a curtain. The subject was invited to put on eyeshades and headphones, lie down and listen to calming music for the rest of the session (six hours). The subject was supported 1:1 with a chaperone and supervised by the study psychiatrist and lead therapist.
During administration of psilocybin, each subject received one-on-one support from a trained assisting therapist and each dosing session was supervised by a study psychiatrist and a lead therapist. The study drug was administered simultaneously to up to six participants as a single 5-capsule oral dose (10 mg psilocybin: 2×5-mg psilocybin capsules plus 3×placebo capsules; 25 mg psilocybin: 5×5-mg psilocybin capsules; placebo: 5×placebo capsules). Twenty-five dosing sessions were completed, with up to six participants dosed simultaneously per session. Each session lasted approximately 6 to 8 hours with subjects encouraged to relax and engage in introspection for the duration. After the acute effects of the study drug had subsided, subjects were discharged.

CN(C)CCc1c[nH]c2cccc(OP(=O)(O)O)c12 [Psilocybin, psilocybin]
2 (6.7): Affect lability, worst severity Mild, N (%) | Depressed mood, N (%) | Dissociative identity disorder, N (%) | Hallucination, N (%) | Hallucination, worst severity Moderate, N (%)
29 (96.7): Any TEAE related to study treatment, N (%) | Any TEAE, N (%)
1: Affect lability, worst severity Moderate, Events | Emotional disorder, worst severity Mild, Events | Feeling of relaxation, Events | Gastrointestinal disorders, worst severity Moderate, Events | General disorders and administration site conditions, worst severity Severe, Events | Hallucination, auditory, worst severity Mild, Events | Hallucination, olfactory, Events
208: Any TEAE related to study treatment, Events
13: Hallucination, visual, worst severity Moderate, Events
5 (16.7): Emotional disorder, N (%) | Fatigue, worst severity Moderate, N (%) | Gastrointestinal disorders, N (%) | Hallucination, visual, worst severity Severe, N (%) | Headache, worst severity Moderate, N (%)
18: General disorders and administration site conditions, Events
3 (10.0): Affect lability, N (%) | Any TEAE, worst severity Mild, N (%) | Euphoric mood, worst severity Mild, N (%) | Fatigue, worst severity Mild, N (%) | Hallucination, auditory, worst severity Moderate, N (%) | Hallucination, visual, worst severity Mild, N (%) | Hypoaesthesia, N (%) | Hypoaesthesia, worst severity Mild, N (%)
16 (53.3): Any TEAE, worst severity Moderate, N (%)
10 (33.3): Any TEAE, worst severity Severe, N (%) | Any severe TEAE, N (%) | Headache, worst severity Mild, N (%)
217: Any TEAE, Events
6: Emotional disorder, Events
27 (90.0): Any Selected TEAE, N (%)
8: Euphoric mood, Events | Fatigue, Events | General disorders and administration site conditions, worst severity Mild, Events
21 (70.0): Hallucination, visual, N (%)
5: Emotional disorder, worst severity Moderate, Events | Fatigue, worst severity Moderate, Events | Gastrointestinal disorders, Events | Hallucination, visual, worst severity Severe, Events | Headache, worst severity Moderate, Events
6 (20.0): General disorders and administration site conditions, worst severity Moderate, N (%)
0: Affect lability, worst severity Severe, Events | Affect lability, worst severity Severe, N (%) | Any TEAE leading to death, Events | Any TEAE leading to death, N (%) | Any TEAE leading to study discontinuation, Events | Any TEAE leading to study discontinuation, N (%) | Any serious TEAE related to study treatment, Events | Any serious TEAE related to study treatment, N (%) | Any serious TEAE, Events | Any serious TEAE, N (%) | Change in sustained attention, Events | Change in sustained attention, N (%) | Emotional disorder, worst severity Severe, Events | Emotional disorder, worst severity Severe, N (%) | Euphoric mood, worst severity Severe, Events | Euphoric mood, worst severity Severe, N (%) | Fatigue, worst severity Severe, Events | Fatigue, worst severity Severe, N (%) | Feeling abnormal, Events | Feeling abnormal, N (%) | Feeling abnormal, worst severity Mild, Events | Feeling abnormal, worst severity Mild, N (%) | Feeling abnormal, worst severity Moderate, Events | Feeling abnormal, worst severity Moderate, N (%) | Feeling abnormal, worst severity Severe, Events | Feeling abnormal, worst severity Severe, N (%) | Gastrointestinal disorders, worst severity Severe, Events | Gastrointestinal disorders, worst severity Severe, N (%) | Hallucination, auditory, worst severity Severe, Events | Hallucination, auditory, worst severity Severe, N (%) | Hallucination, gustatory, Events | Hallucination, gustatory, N (%) | Hallucination, worst severity Mild, Events | Hallucination, worst severity Mild, N (%) | Hallucination, worst severity Severe, Events | Hallucination, worst severity Severe, N (%) | Headache, worst severity Severe, Events | Headache, worst severity Severe, N (%) | Hypoaesthesia, worst severity Moderate, Events | Hypoaesthesia, worst severity Moderate, N (%) | Hypoaesthesia, worst severity Severe, Events | Hypoaesthesia, worst severity Severe, N (%)
8 (26.7): Fatigue, N (%) | General disorders and administration site conditions, worst severity Mild, N (%)
16: Headache, Events
7: General disorders and administration site conditions, worst severity Moderate, Events
22: Hallucination, visual, Events
4: Euphoric mood, worst severity Moderate, Events | Gastrointestinal disorders, worst severity Mild, Events | Hallucination, auditory, Events | Hallucination, tactile, Events | Hypoaesthesia, Events | Hypoaesthesia, worst severity Mild, Events
7 (23.3): Euphoric mood, N (%)
3: Euphoric mood, worst severity Mild, Events | Fatigue, worst severity Mild, Events | Hallucination, auditory, worst severity Moderate, Events | Hallucination, visual, worst severity Mild, Events
4 (13.3): Emotional disorder, worst severity Moderate, N (%) | Euphoric mood, worst severity Moderate, N (%) | Gastrointestinal disorders, worst severity Mild, N (%) | Hallucination, auditory, N (%) | Hallucination, tactile, N (%)
1 (3.3): Affect lability, worst severity Moderate, N (%) | Emotional disorder, worst severity Mild, N (%) | Feeling of relaxation, N (%) | Gastrointestinal disorders, worst severity Moderate, N (%) | General disorders and administration site conditions, worst severity Severe, N (%) | Hallucination, auditory, worst severity Mild, N (%) | Hallucination, olfactory, N (%)
106: Any Selected TEAE, Events
10: Headache, worst severity Mild, Events
14: Any TEAE, worst severity Mild, Events
29: Any TEAE, worst severity Severe, Events | Any severe TEAE, Events
2: Affect lability, worst severity Mild, Events | Depressed mood, Events | Dissociative identity disorder, Events | Hallucination, Events | Hallucination, worst severity Moderate, Events
15 (50.0): General disorders and administration site conditions, N (%) | Headache, N (%)
13 (43.3): Hallucination, visual, worst severity Moderate, N (%)
52: Any TEAE, worst severity Moderate, Events
